Common to all, as to format: in vivo
Series [1] deals with Monochoria vaginalis. Kind of series: Test Example 1: herbicidal activity, application before weed generation in submerged conditions (symbol C). The note with it: application herbicide amount 320 g/ha. Put shortly:
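Steps: alluvial soil flooded to 4 cm; weed seeds sown together; rice seedlings (2.5 leaf) transplanted; diluted emulsion applied to water surface the same day as sowing; plants grown at 25–30 °C in greenhouse; herbicidal effect rated on a 0–5 scale at 3 weeks.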

Series [2] has as its system Scirpus juncoides. The series can be described thus: Test Example 2: herbicidal activity, application during weed generation in submerged conditions (symbol B). The note with it: Table 23; application herbicide amount 320 g/ha; grade 0-5 by criteria of Test Example 1. The gist of the method:
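Submerged alluvial soil (4 cm) sown with mixed seed; greenhouse 25–30° C. 1–2 leaf: diluted emulsion onto water surface, preset dose. Visual score, 3 wk.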

Series [3] deals with Echinochloa crus-galli var. crus-galli. The series can be described thus: Test Example 3: herbicidal effect by foliage application, Wagner pot (symbol H). The note with it: application herbicide amount 320 g/ha. Put shortly: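 Steps: fill pot with alluvial soil; add water to 0.1–0.5 cm depth; sow weed and rice seed; grow 14 days at 25–30 °C; spray diluted emulsion over the leaves; rate effect after 3 weeks.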

The test system of series [4] is directly sowed rice plant. The series can be described thus: Test Example 3: effect on crop by foliage application, Wagner pot (symbol b). The note with it: application herbicide amount 320 g/ha. Put shortly: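 Alluvial soil in a 1/10000-are Wagner pot was flooded to a water depth of 0.1–0.5 cm. Echinochloa crus-galli var. crus-galli, Leptochloa chinensis, Cyperus difformis and rice were sown into it and grown in a greenhouse at 25–30 °C.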

In series [5] the test system is Galium spurium. Kind of series: Test Example 4: herbicidal effect by soil treatment (symbol Q). The note with it: application herbicide amount 320 g/ha. Put shortly: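 Seeds were sown in sterilized diluvial soil, covered with about 1.5 cm of soil, and the soil surface was sprayed with a water-diluted emulsion of the compound at a predetermined rate. Plants grew in a greenhouse at 25° C. to 30° C.; effects were scored visually 3 weeks after application.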

Series [6] has as its system beet. The series can be described thus: Test Example 4: effect on crop by soil treatment (symbol f). The note with it: application herbicide amount 320 g/ha. The gist of the method: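 Sterilized diluvial soil, spot sowing, ~1.5 cm soil cover; greenhouse 25–30° C.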
For series [7], the system named is Avena fatua. The series can be described thus: Test Example 5: herbicidal effect by foliage application, plastic box (symbol I). The note with it: 320 g/ha, 3 weeks after application. Put shortly:
(§1)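 Greenhouse foliar test: seedlings at 14 days, grown 25° C. to 30° C. in sterilized diluvial soil; compound applied as an aqueous dilution of an emulsion; response read 3 weeks after spraying.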

The subject of series [8] is soybean. Kind of series: Test Example 5: effect on crop by foliage application, plastic box (symbol d). The note with it: 320 g/ha, 3 weeks after application. The gist of the method: (§2)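 In a plastic box 7 cm deep filled with sterilized diluvial soil, seeds of crops and weeds such as Digitaria ciliaris, Avena fatua and Amaranthus retroflexus are sown in spots and covered with about 1.5 cm of soil before greenhouse growth at 25–30° C.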

The subject of series [9] is rapeseed. The series can be described thus: Test Example 5: effect on crop by foliage application, plastic box (symbol g). The note with it: 320 g/ha, 3 weeks after application. Put shortly: as §2
Series [10] deals with Veronica persica. The series can be described thus: Test Example 5: herbicidal effect by foliage application, plastic box (symbol R). The note with it: 320 g/ha, 3 weeks after application. Put shortly: as §1

`CCC(CCC1CC(O)=C(c2c(C)cc(C)cc2C)C1=O)=NOC` (mixture of isomers) [4-001]: the “Herbicidal effect grade, C: Monochoria vaginalis” value (shortened to “Herbicidal effect grade, C”) in [1] was 0 (Herbicidal ratio of 5% or lower (almost no effect)). In addition, the “Herbicidal effect grade, B: Scirpus juncoides” value (“Herbicidal effect grade, B” below) in series [2] is 0 (Herbicidal ratio of 5% or lower (almost no effect)). Further, the “herbicidal effect on H (Echinochloa crus-galli var. crus-galli), grade 0-5” value (“herbicidal effect on H” below) in series [3] was 2 (Herbicidal ratio of 20% or higher and lower than 40%). In addition, in series [4], the “effect on crop b (directly sowed rice plant), grade 0-5” value (from here on “effect on crop b”) was 4 (Herbicidal ratio of 70% or higher and lower than 90%). Moreover, the “Q: Galium spurium, herbicidal effect grade” value (shortened to “Q: Galium spurium”) in series [5] is reported as 0 (Herbicidal ratio of 5% or lower (almost no effect)). Also, the “f: beet, effect on crop grade” value in series [6] is 0 (Herbicidal ratio of 5% or lower (almost no effect)). The “I: Avena fatua, herbicidal effect grade” value in [7] is 4 (Herbicidal ratio of 70% or higher and lower than 90%). Moreover, in series [8], the “d: soybean, effect on crop grade” value is 0 (Herbicidal ratio of 5% or lower (almost no effect)).

As for `CCc1cc(C#C[Si](C)(C)C)cc(C)c1C1=C(O)CC(CC(C)=NOC)C1=O` (mixture of isomers) [6-008], the “Herbicidal effect grade, C” value in series [1] is 5 (Herbicidal ratio of 90% or more (almost completely withered)). Moreover, the “Herbicidal effect grade, B” value in [2] is reported as 5 (Herbicidal ratio of 90% or more (almost completely withered)). Besides, the “herbicidal effect on H” value in series [3] is on record as 5 (Herbicidal ratio of 90% or more (almost completely withered)). The “effect on crop b” value in series [4] is given as 5 (Herbicidal ratio of 90% or more (almost completely withered)). In addition, the “Q: Galium spurium” value in [5] is 0 (Herbicidal ratio of 5% or lower (almost no effect)). In addition, the “f: beet, effect on crop grade” value in [6] is given as 0 (Herbicidal ratio of 5% or lower (almost no effect)). The “I: Avena fatua, herbicidal effect grade” value in [7] was 0 (Herbicidal ratio of 5% or lower (almost no effect)). The “d: soybean, effect on crop grade” value in series [8] is 1 (Herbicidal ratio of 5% or higher and lower than 20%). For the same compound, the “g: rapeseed, effect on crop grade” value in series [9] was 0 (Herbicidal ratio of 5% or lower (almost no effect)).

As to `CCOC(=O)C(C(=O)c1ccccc1)C1CC(O)=C(c2c(C)cc(C)cc2C)C1=O` (stereo not shown) [2-008], the “Herbicidal effect grade, C” value in series [1] is listed as 0 (Herbicidal ratio of 5% or lower (almost no effect)). Besides, in series [2], the “Herbicidal effect grade, B” value was 0 (Herbicidal ratio of 5% or lower (almost no effect)). Further, the “herbicidal effect on H” value in series [3] is recorded as 0 (Herbicidal ratio of 5% or lower (almost no effect)). Also, the “effect on crop b” value in [4] is listed as 0 (Herbicidal ratio of 5% or lower (almost no effect)). Also, the “Q: Galium spurium” value in series [5] is reported as 0 (Herbicidal ratio of 5% or lower (almost no effect)). In addition, the “f: beet, effect on crop grade” value in [6] is 0 (Herbicidal ratio of 5% or lower (almost no effect)). In series [7], the “I: Avena fatua, herbicidal effect grade” value was 0 (Herbicidal ratio of 5% or lower (almost no effect)). Moreover, the “d: soybean, effect on crop grade” value in series [8] is 1 (Herbicidal ratio of 5% or higher and lower than 20%). Also, the “g: rapeseed, effect on crop grade” value in [9] is 3 (Herbicidal ratio of 40% or higher and lower than 70%).

`COCC(=O)CC1CC(O)=C(c2c(C)cc(C)cc2C)C1=O` (stereo not shown) [2-007]: the “Herbicidal effect grade, C” value in [1] is given as 0 (Herbicidal ratio of 5% or lower (almost no effect)). Moreover, the “Herbicidal effect grade, B” value in series [2] is recorded as 0 (Herbicidal ratio of 5% or lower (almost no effect)). Moreover, the “herbicidal effect on H” value in series [3] is given as 5 (Herbicidal ratio of 90% or more (almost completely withered)). The “effect on crop b” value in series [4] is 5 (Herbicidal ratio of 90% or more (almost completely withered)). Besides, in series [5], the “Q: Galium spurium” value was 0 (Herbicidal ratio of 5% or lower (almost no effect)). The “f: beet, effect on crop grade” value in series [6] is on record as 0 (Herbicidal ratio of 5% or lower (almost no effect)). Also, the “I: Avena fatua, herbicidal effect grade” value in series [7] was 0 (Herbicidal ratio of 5% or lower (almost no effect)). Moreover, the “d: soybean, effect on crop grade” value in series [8] was 0 (Herbicidal ratio of 5% or lower (almost no effect)). Moreover, in [9], the “g: rapeseed, effect on crop grade” value was 1 (Herbicidal ratio of 5% or higher and lower than 20%).

For `CCc1cc(-n2cc(Cl)cn2)cc(C)c1C1=C(O)CC(CC(C)=NOC)C1=O` (mixture of isomers) [6-005], in series [1], the “Herbicidal effect grade, C” value was 3 (Herbicidal ratio of 40% or higher and lower than 70%). Besides, in series [2], the “Herbicidal effect grade, B” value is 2 (Herbicidal ratio of 20% or higher and lower than 40%). Moreover, in series [3], the “herbicidal effect on H” value is 5 (Herbicidal ratio of 90% or more (almost completely withered)). In addition, the “effect on crop b” value in series [4] is recorded as 5 (Herbicidal ratio of 90% or more (almost completely withered)). Moreover, the “Q: Galium spurium” value in series [5] was 0 (Herbicidal ratio of 5% or lower (almost no effect)). Besides, the “f: beet, effect on crop grade” value in [6] is given as 0 (Herbicidal ratio of 5% or lower (almost no effect)). Moreover, the “I: Avena fatua, herbicidal effect grade” value in [7] is 5 (Herbicidal ratio of 90% or more (almost completely withered)). The “d: soybean, effect on crop grade” value in series [8] is 4 (Herbicidal ratio of 70% or higher and lower than 90%). In addition, the “g: rapeseed, effect on crop grade” value in [9] is on record as 0 (Herbicidal ratio of 5% or lower (almost no effect)).

`CCc1cc(C)cc(C)c1C1=C(O)CC(CC(C)=NOC)C1=O` (stereo not shown) [6-007]: the “Herbicidal effect grade, C” value in series [1] was 1 (Herbicidal ratio of 5% or higher and lower than 20%). Also, the “Herbicidal effect grade, B” value in series [2] is 3 (Herbicidal ratio of 40% or higher and lower than 70%). For the same compound, in series [3], the “herbicidal effect on H” value is given as 5 (Herbicidal ratio of 90% or more (almost completely withered)). Further, in series [4], the “effect on crop b” value is 5 (Herbicidal ratio of 90% or more (almost completely withered)). The “Q: Galium spurium” value in series [5] was 0 (Herbicidal ratio of 5% or lower (almost no effect)). The “f: beet, effect on crop grade” value in series [6] is reported as 0 (Herbicidal ratio of 5% or lower (almost no effect)). Moreover, the “I: Avena fatua, herbicidal effect grade” value in series [7] was 3 (Herbicidal ratio of 40% or higher and lower than 70%). Moreover, the “d: soybean, effect on crop grade” value in [8] was 2 (Herbicidal ratio of 20% or higher and lower than 40%).

With `CCC(=O)CCC1CC(O)=C(c2c(C)cc(C)cc2C)C1=O` (stereo not shown) [5-001], the “Herbicidal effect grade, C” value in series [1] is given as 0 (Herbicidal ratio of 5% or lower (almost no effect)). Besides, the “Herbicidal effect grade, B” value in series [2] is given as 0 (Herbicidal ratio of 5% or lower (almost no effect)). The “herbicidal effect on H” value in [3] is 2 (Herbicidal ratio of 20% or higher and lower than 40%). Also, the “effect on crop b” value in [4] was 5 (Herbicidal ratio of 90% or more (almost completely withered)). In addition, in series [5], the “Q: Galium spurium” value was 0 (Herbicidal ratio of 5% or lower (almost no effect)). For the same compound, in [7], the “I: Avena fatua, herbicidal effect grade” value is 4 (Herbicidal ratio of 70% or higher and lower than 90%). Also, the “R: Veronica persica, herbicidal effect grade” value in series [10] is reported as 0 (Herbicidal ratio of 5% or lower (almost no effect)). In addition, the “d: soybean, effect on crop grade” value in [8] is listed as 0 (Herbicidal ratio of 5% or lower (almost no effect)). Besides, the “g: rapeseed, effect on crop grade” value in series [9] is on record as 0 (Herbicidal ratio of 5% or lower (almost no effect)).

Source of the values: patent US11000033B2, “Ketone or oxime compound, and herbicide” (NISSAN CHEMICAL CORPORATION, priority 2014, dated 2021).
